Laboratory results published in patent US20030175961A1, “Immortal micorvascular endothelial cells and uses thereof” (priority 2002, published 2003).
“Also recorded” adds a separate entry of the source.

Columns and labels:
hTERT(+) HDMEC (TERT-1) = experiment: Cell surface marker expression after TNF stimulation, TERT-1; format: cell-based, human; conditions: TNFá stimulation for 16 hr
Procedure: (§1) The hTERT(+) HDMEC (TERT-1) line expressed uniformly high PCAM but relatively low levels of ICAM-1 (30%), VCAM-1 (1.3%) and CD34 (19.5%) at baseline. […] The latter result was consistent with experiments performed in support of the present invention that studied the same characteristics of primary HDMEC CD34 expression.
(§2) The antibodies used for flow Cytometry were anti-PECAM (Becton Dickinson), ICAM (Pharmingen), and Apo2.7 (Immunotech). […] For apo 2.7 assay, the cells were treated with TNFá+actinomycin D (AMD), LPS+cycloheximide (CHX), or UV light 16 hours prior to the experiments. One group of cells were serum starved for 40 hours. The cells are incubated with either PE conjugated primary antibody or un-conjugated primary antibody+PE conjugated secondary antibody at 37° C. The data was collected and analyzed with CellQuest (Becton Dickinson) or Coulter EPICS cell sorter.

primary HDMEC (control) = experiment: Cell surface marker expression after TNF stimulation, primary HDMEC; format: cell-based, human; conditions: TNFá stimulation for 16 hr
Procedure: as §1, §2

MMP activities = experiment: Fluorescent substrate assay (FSA) of MMP activity in HDMEC conditioned media; format: biochemical, human; conditions: concentrated conditioned media from HDMEC cultures +/- PMA; Knight substrate
Procedure: Replicate hTERT(+)HDMECs (PD30, 60, 90) and primary controls (PD5, PD25) are seeded at equal densities, grown to confluence and switched to EBM media (Clonetics, San Diego, Calif.) containing growth factors, but no serum, for 72 hrs. Media is collected and total protein measured (Pierce, Rockford, Ill.). […] In addition, conditioned media are analyzed by a fluorescent substrate assay (FSA).
The FSA is an assay system for MMP activities based on recently-developed fluorogenic substrates that utilize 7-methoxycoumarin (MOC)-labeled MMP-specific small peptides (“Knight” substrate; Knight CG. Fluorimetric Assays of Proteolytic Enzymes. Met Enzymol 1995, 248:18-34). Release of MOC from the 2,4-dinitrophenyl-quenched peptide by active MMPs results in proportional increases in fluorescence with time. Activities of recombinant MMP-2 and MMP-9 using the Knight substrate were readily detectable and yielded linear initial reaction rates over 10 minutes. Calculated initial rates of hydrolysis of the Knight substrate (4 uM) by MMP-2 (1.2 nM), MMP-9 (1.2 nM), and MMP-2 (0.6 uM) plus MMP-9 (0.6 uM) were 571.1 units/min, 208.2 units/min, and 242 units/min, respectively. […]

[1] = system: GNMEC1 (eGFP-labeled hTERT(+)HDMEC); experiment: In vitro angiogenic web formation on Matrigel; format: cell-based, human; conditions: GNMEC1 pretreated with COX antagonist, then plated on Matrigel; FIG. 17
Procedure: Tubule formation on Matrigel. Matrigel (Collaborative Biomedical Products) was placed on ice and allowed to thaw overnight in a darkened cold room or refrigerator. Three hundred fifty microliters of the Matrigel was layered onto a pre-chilled well of a 6-well plate and then placed in an incubator at 37° C. for one half hour for the Matrigel to solidify. About 350,000 cells in M199/15% FBS/10 U/ml heparin/16 ig/ml ECGF were then seeded onto the matrix and allowed to incubate at 37° C., 5% CO2 environment. […] To show the utility of this in vitro system, we pretreated GNMEC1 with two different cyclo-oxygenase (COX) antagonists which are known to block angiogenesis (Jones et al. 1999 Nature Medicine 5:12;1418-23) and then plated the cells on Matrigel. […] The “tubulogenic process” can be followed and quantified utilizing cell lines such as GNMEC1 and digitally-converted fluorescence microscopic images of replicate cultures. Commercially available programs in current use with other cellular applications which maybe used to perform this process include MetaMorph® (Universal Imaging Corporation®, West Chester, Pa.) and the high-throughput imaging systems of Cellomics, Inc. (Pittsburgh, Pa.).

[2] = system: human microvessel formation by GNMEC1; experiment: In vivo human microvascular remodeling assay, GNMEC1 in Matrigel implants in SCID mice; set-up: species or system human cells in SCID mice; conditions: agents mixed with GNMEC1 in Matrigel before implantation in SCID mice; FIG. 24-27; preliminary studies
Description: (§3) SCID mice were implanted with Matrigel mixtures containing either b-FGF, primary HDMEC (PD1O) or hTERT(+)HDMEC via subcutaneous injection on ventral thoracic surfaces. Implants were harvested at 2 weeks, sectioned and stained with H&E and anti-human basement membrane Type 4 collagen. […] The presence of red blood cells within these human vessels indicates host vasculature has anastamosed with the human vessels creating murine-human chimeric microvasculature.
All agents were incorporated into Matrigel by mixing cells and agents together before implantation. The effect of continuous exposure at different concentrations was not performed but would be likely to greatly accentuate the results shown in these preliminary studies.

[3] = system: primary normal human keratinocyte (NHK) cultures; experiment: Fluorescent substrate assay (FSA) of net MMP activity in keratinocyte conditioned media; format: cell-based; conditions: conditioned media of PMA-treated NHK, only after APMA activation
Description: The FSA is an assay system for MMP activities based on recently-developed fluorogenic substrates that utilize 7-methoxycoumarin (MOC)-labeled MMP-specific small peptides (“Knight” substrate; Knight CG. Fluorimetric Assays of Proteolytic Enzymes. Met Enzymol 1995, 248:18-34). Release of MOC from the 2,4-dinitrophenyl-quenched peptide by active MMPs results in proportional increases in fluorescence with time. Activities of recombinant MMP-2 and MMP-9 using the Knight substrate were readily detectable and yielded linear initial reaction rates over 10 minutes. Calculated initial rates of hydrolysis of the Knight substrate (4 uM) by MMP-2 (1.2 nM), MMP-9 (1.2 nM), and MMP-2 (0.6 uM) plus MMP-9 (0.6 uM) were 571.1 units/min, 208.2 units/min, and 242 units/min, respectively.
Reverse zymography confirmed the presence of TIMPs.

[4] = system: HDMEC-GT derived microvessels; experiment: SCID mice xenografting of HDMEC-GT in Matrigel, human vessel quantification; format: in vivo, human cells in SCID mice; conditions: for human vessel density (human type IV collagen micromorphometry): two weeks after implantation, VEGF 2 μg/ml or FGF-2 150 ng/ml mixed with HDMEC-GT and Matrigel, only FGF-2 significant (p<0.01)
Procedure: This procedure is based on a modification of the mouse angiogenesis model previously described^41. Two-three week old male or female SCID mice (Taconic, Germantown, N.Y.) were used as hosts for all implants. Primary HDMEC and HDMEC-T were harvested, washed twice and re-suspended in serum-free EGM-2 basal medium at the concentration of 1×10^5/μl. Ten μl of cells were mixed with 0.5 ml of Matrigel on ice and the mixture was implanted in the ventral midline thoracic tissue of each mouse by subcutaneous injection using a #25 needle. Up to three separate injections could be performed on a single mouse. For some experiments, recombinant human VEGF165 (2 μg/ml) (R&D systems, Minneapolis, Minn.) or bovine FGF-2 (150 ng/ml) (R&D systems, Minneapolis, Minn.) were added to the mixture. When tumor cells (HT1080 and 293, ATCC) or primary human dermal fibroblasts 38 were injected, the procedure remained the same except basal DMEM medium replaced EGM-2. 41. Passaniti, A. et al. A simple, quantitative method for assessing angiogenesis and antiangiogenic agents using reconstituted basement membrane, heparin, and fibroblast growth factor. Lab. Invest. 67, 519-528 (1992).
Matrigel implants were removed at 1, 2, 4 and 6 wk following xenografting, fixed in 10% buffered formalin overnight, paraffin-embedded and sectioned. H&E stained thin sections were prepared at Pan-insular Histopathology laboratory (Los Gatos, Calif.). For immunofluorescence, thin sections were deparaffinized and antigens retrieved in 10 mM citric acid (pH 6.0) by microwaving sections for 2×7 min. […] For micromorphometry, 5 separate 20×fields were randomly selected per tissue section and the number of annular structures were counted and averaged. […] Passaniti, A. et al. A simple, quantitative method for assessing angiogenesis and antiangiogenic agents using reconstituted basement membrane, heparin, and fibroblast growth factor. […]
For digital analysis of eGFP fluorescence images we used a novel algorithm (Moss Filter™) to determine the total amount of vascularization in each implant section. […]

[5] = system: host murine microvasculature; experiment: Host vessel invasion of Matrigel implants in SCID mice; format: in vivo; conditions: FGF-2 alone in Matrigel, no human EC
Description: as §3
This procedure is based on a modification of the mouse angiogenesis model previously described^41. Two-three week old male or female SCID mice (Taconic, Germantown, N.Y.) were used as hosts for all implants. […] Passaniti, A. et al. A simple, quantitative method for assessing angiogenesis and antiangiogenic agents using reconstituted basement membrane, heparin, and fibroblast growth factor. […]
Matrigel implants were removed at 1, 2, 4 and 6 wk following xenografting, fixed in 10% buffered formalin overnight, paraffin-embedded and sectioned. […] For micromorphometry, 5 separate 20×fields were randomly selected per tissue section and the number of annular structures were counted and averaged. […] Passaniti, A. et al. A simple, quantitative method for assessing angiogenesis and antiangiogenic agents using reconstituted basement membrane, heparin, and fibroblast growth factor. […]

TNFá
VCAM-1 expression (hTERT(+) HDMEC (TERT-1); TERT-1 (baseline 1.3%)): 41% | CD34 expression (hTERT(+) HDMEC (TERT-1); TERT-1 (baseline 19.5%)): 1.6% | ICAM-1 expression (hTERT(+) HDMEC (TERT-1); TERT-1 (baseline 30%)): > 99% | ICAM-1 expression (primary HDMEC (control); control primary cells): > 99% | VCAM-1 expression (primary HDMEC (control); control primary cells): 41% | CD34 expression (primary HDMEC (control); primary cells): 45%

c1cnc2c(c1)ccc1cccnc12 [1, 10 phenanthraline, reference compound]
blocking of MMP activities (MMP activities): completely blocked

CS(=O)(=O)Nc1ccc([N+](=O)[O-])cc1OC1CCCCC1 [NS-398]
angiogenic web blockade (dose-response curve) [1]: angiogenic web blockade

CCCCCCCCCCCCCC(=O)O[C@@H]1[C@@H](C)[C@@]2(O)[C@@H](C=C(CO)C[C@]3(O)C(=O)C(C)=C[C@@H]23)[C@@H]2C(C)(C)[C@]12OC(C)=O [PMA, reference compound]
effect on human microvessel formation in vivo (microvessel density, anti-human Type 4 collagen immuno-micromorphometry) [2]: angiostatic qualities | net MMP activity [3]: 10.1 units/min/ug total protein

rTIMP-1: Tissue Inhibitor of Matrix metalloProteinases 1
blocking of MMP activities (MMP activities): partially blocked

VEGF
increased vessel density relative to controls ([4]; VEGF mixed with HDMEC-GT and Matrigel, two weeks, not statistically significant): 20-30% | human vessel density (human type IV collagen micromorphometry) [4]: increased vessel density

FGF-2: bovine FGF-2 (R&D systems), pro-angiogenic factor
effect on human microvessel formation in vivo (microvessel density, anti-human Type 4 collagen immuno-micromorphometry) [2]: greatest stimulatory effect | human vessel density (human type IV collagen micromorphometry) [4]: statistically increased human vessel density | host vessel invasion of Matrigel implants [5]: marked host vessel invasion; also recorded: stimulated | host vessel invasion of Matrigel implants ([5]; listed as b-FGF): host microvasculature is readily apparent invading

COc1ccc2c(c1)c(CC(=O)O)c(C)n2C(=O)c1ccc(Cl)cc1 [indomethacin]
angiogenic web blockade (dose-response curve) [1]: angiogenic web blockade
